# Laboratory results from US8440708B2, “Triazole-substituted arylamides as P2X3 and P2X2/3 antagonists” (Roche Palo Alto LLC, priority 2007, dated 2013).
# Assays:
# rat P2X3 receptor = target: T1, rat P2X3 receptor (Rattus norvegicus, UniProt P49654); test: P2X3/P2X2/3 FLIPR (Fluorometric Imaging Plate Reader) Assay, P2X3; format: cell-based; details: CHO-K1 cells transfected with rat P2X3; agonist α,β-meATP 1 μM; Table 1; read-out: P2X3 pKi (converted)
# T1 construct: expressed in transfected cells; host or cells: CHO-K1
# T1 sequence (P49654 1-397): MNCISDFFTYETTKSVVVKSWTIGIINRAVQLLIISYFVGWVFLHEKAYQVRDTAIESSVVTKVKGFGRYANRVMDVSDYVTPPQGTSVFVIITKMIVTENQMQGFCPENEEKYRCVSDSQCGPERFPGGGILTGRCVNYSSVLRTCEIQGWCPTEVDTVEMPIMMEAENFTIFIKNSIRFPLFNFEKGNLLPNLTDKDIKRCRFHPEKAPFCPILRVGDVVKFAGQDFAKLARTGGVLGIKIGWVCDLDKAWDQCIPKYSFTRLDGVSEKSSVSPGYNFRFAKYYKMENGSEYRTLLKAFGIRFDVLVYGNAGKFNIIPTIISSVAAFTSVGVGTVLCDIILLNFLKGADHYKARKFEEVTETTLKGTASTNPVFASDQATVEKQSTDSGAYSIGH
# Procedure: (§1) P2X3/P2X2/3 FLIPR (Fluorometric Imaging Plate Reader) Assay
# (§2) CHO-K1 cells were transfected with cloned rat P2X3 or human P2X2/3 receptor subunits and passaged in flasks. 18-24 hours before the FLIPR experiment, cells were released from their flasks, centrifuged, and resuspended in nutrient medium at 2.5×10^5 cells/ml. The cells were aliquoted into black-walled 96-well plates at a density of 50,000 cells/well and incubated overnight in 5% CO2 at 37° C. On the day of the experiment, cells were washed in FLIPR buffer (calcium- and magnesium-free Hank's balanced salt solution, 10 mM HEPES, 2 mM CaCl2, 2.5 mM probenecid; FB). Each well received 100 μl FB and 100 μl of the fluorescent dye Fluo-3 AM [2 μM final conc.]. After a 1 hour dye loading incubation at 37° C., the cells were washed 4 times with FB, and a final 75 μl/well FB was left in each well.
# (§3) Test compounds (dissolved in DMSO at 10 mM and serially diluted with FB) or vehicle were added to each well (25 μl of a 4× solution) and allowed to equilibrate for 20 minutes at room temperature. The plates were then placed in the FLIPR and a baseline fluorescence measurement (excitation at 488 nm and emission at 510-570 nm) was obtained for 10 seconds before a 100 μl/well agonist or vehicle addition. The agonist was a 2× solution of α,β-meATP producing a final concentration of 1 μM (P2X3) or 5 μM (P2X2/3). Fluorescence was measured for an additional 2 minutes at 1 second intervals after agonist addition. A final addition of ionomycin (5 μM, final concentration) was made to each well of the FLIPR test plate to establish cell viability and maximum fluorescence of dye-bound cytosolic calcium. Peak fluorescence in response to the addition of α,β-meATP (in the absence and presence of test compounds) was measured and inhibition curves generated using nonlinear regression. PPADS, a standard P2X antagonist, was used as a positive control.
# human P2X2/3 receptor = target: T2, human P2X2/3 receptor (Homo sapiens, UniProt P56373+Q9UBL9); test: P2X3/P2X2/3 FLIPR (Fluorometric Imaging Plate Reader) Assay, P2X2/3; format: cell-based; details: CHO-K1 cells transfected with human P2X2/3; agonist α,β-meATP 5 μM; Table 1; read-out: P2X2/3 pKi (converted)
# T2 construct: expressed in transfected cells; host or cells: CHO-K1
# T2 sequence (Q9UBL9 1-471): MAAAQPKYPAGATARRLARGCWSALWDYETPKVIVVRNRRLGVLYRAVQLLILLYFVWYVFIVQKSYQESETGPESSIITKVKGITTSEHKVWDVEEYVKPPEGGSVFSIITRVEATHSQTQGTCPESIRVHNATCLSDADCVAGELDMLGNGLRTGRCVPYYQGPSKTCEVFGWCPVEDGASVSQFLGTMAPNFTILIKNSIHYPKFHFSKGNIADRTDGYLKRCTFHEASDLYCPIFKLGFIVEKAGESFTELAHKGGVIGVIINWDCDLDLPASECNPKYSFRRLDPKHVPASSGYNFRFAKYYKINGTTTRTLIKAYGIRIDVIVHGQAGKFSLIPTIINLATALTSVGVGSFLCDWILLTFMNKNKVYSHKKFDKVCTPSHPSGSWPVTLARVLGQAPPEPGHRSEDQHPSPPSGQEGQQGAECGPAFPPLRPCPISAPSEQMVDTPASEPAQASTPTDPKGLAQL
# T2 sequence (P56373 1-397): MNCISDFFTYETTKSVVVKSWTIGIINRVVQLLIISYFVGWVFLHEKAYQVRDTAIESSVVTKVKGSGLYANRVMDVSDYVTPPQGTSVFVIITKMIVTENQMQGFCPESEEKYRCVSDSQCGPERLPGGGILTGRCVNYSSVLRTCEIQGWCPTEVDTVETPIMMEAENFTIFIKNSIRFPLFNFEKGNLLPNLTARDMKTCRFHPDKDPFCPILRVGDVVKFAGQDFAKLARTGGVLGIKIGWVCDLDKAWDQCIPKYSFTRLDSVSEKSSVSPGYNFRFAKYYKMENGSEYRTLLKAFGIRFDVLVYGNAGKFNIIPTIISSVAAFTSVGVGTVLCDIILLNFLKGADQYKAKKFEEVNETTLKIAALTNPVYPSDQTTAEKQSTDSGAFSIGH
# Procedure: as §1, §2, §3
SMILES,Ki (rat P2X3 receptor) [nM],Ki (human P2X2/3 receptor) [nM]
"COCC(C)NC(=O)c1cc(-c2ccc(C)cc2)cc(-n2cncn2)c1 (centres unmarked) [Compound 2, 4′-Methyl-5-[1,2,4]triazol-1-yl-biphenyl-3-carboxylic acid (2-methoxy-1-methyl-ethyl)-amide]",1450,10200
"COCC(C)NC(=O)c1cc(-c2ccc(C)cc2)cc(-n2nccn2)c1 (centres unmarked) [Compound 3, 4′-Methyl-5-[1,2,3]triazol-2-yl-biphenyl-3-carboxylic acid (2-methoxy-1-methyl-ethyl)-amide]",2950,
"Cc1ccc(-c2cc(C(=O)NC(C)c3cnccn3)cc(-c3nnc4ccccn34)c2)c(F)c1 (centres unmarked) [Compound 4, 2′-Fluoro-4′-methyl-5-[1,2,4]triazolo[4,3-a]pyridin-3-yl-biphenyl-3-carboxylic acid (1-pyrazin-2-yl-ethyl)-amide]",437,1230
"Cc1ccc(-c2cc(C(=O)NC(C)c3cnccn3)cc(-n3nncc3C)c2)cc1 (centres unmarked) [Compound 7, 4′-Methyl-5-(5-methyl-[1,2,3]triazol-1-yl)-biphenyl-3-carboxylic acid (1-pyrazin-2-yl-ethyl)-amide]",3.72,191
"Cc1ccc(-c2cc(C(=O)NC(C)c3cnccn3)cc(-n3nncc3C(C)C)c2)cc1 (centres unmarked) [Compound 12, 5-(5-Isopropyl-[1,2,3]triazol-1-yl)-4′-methyl-biphenyl-3-carboxylic acid (1-pyrazin-2-yl-ethyl)-amide]",7.94,31.6
"CCn1cnnc1-c1cc(C(=O)N[C@@H](C)CO)cc(-c2ccc(C)cc2)c1 [Compound 42, 5-(4-Ethyl-4H-[1,2,4]triazol-3-yl)-4′-methyl-biphenyl-3-carboxylic acid ((S)-2-hydroxy-1-methyl-ethyl)-amide]",117,
"Cc1ccc(-c2cc(C(=O)NC3CC3)cc(-n3ncnc3C)c2)nc1 [Compound 68, N-Cyclopropyl-3-(5-methyl-pyridin-2-yl)-5-(5-methyl-[1,2,4]triazol-1-yl)-benzamide]",170,
"Cc1ccc(-c2cc(C(=O)N[C@@H](C)CO)cc(-n3ncnc3CC(F)F)c2)nc1 [Compound 146, 3-[5-(2,2-Difluoro-ethyl)-[1,2,4]triazol-1-yl]-N-((S)-2-hydroxy-1-methyl-ethyl)-5-(5-methyl-pyridin-2-yl)-benzamide]",17.8,
"COCCc1nc(C)nn1-c1cc(C(=O)NCc2cnc(C)cn2)cc(-c2ccc(C)cn2)c1 [Compound 154, 3-[5-(2-Methoxy-ethyl)-3-methyl-[1,2,4]triazol-1-yl]-N-(5-methyl-pyrazin-2-ylmethyl)-5-(5-methyl-pyridin-2-yl)-benzamide]",151,
"Cc1ccc(-c2cc(C(=O)N[C@@H](C)CO)cc(-n3ncnc3C(F)(F)F)c2F)nc1 [Compound 165, 4-Fluoro-N-((S)-2-hydroxy-1-methyl-ethyl)-3-(5-methyl-pyridin-2-yl)-5-(5-trifluoromethyl-[1,2,4]triazol-1-yl)-benzamide]",74.1,
"Cc1ccc(-c2cc(C(=O)NC(C)c3cnccn3)cc(-n3ncnc3C(F)(F)F)c2F)nc1 (centres unmarked) [Compound 170, 4-Fluoro-3-(5-methyl-pyridin-2-yl)-N-(1-pyrazin-2-yl-ethyl)-5-(5-trifluoromethyl-[1,2,4]triazol-1-yl)-benzamide]",3.72,

# The next lines start with the values.
Ki (rat P2X3 receptor) [nM],Ki (human P2X2/3 receptor) [nM],SMILES
1820,,"COCC(C)NC(=O)c1cc(-c2ccc(C)cc2)cc(-n2ccnn2)c1 (centres unmarked) [Compound 1, 4′-Methyl-5-[1,2,3]triazol-1-yl-biphenyl-3-carboxylic acid (2-methoxy-1-methyl-ethyl)-amide]"
603,2820,"COCC(C)NC(=O)c1cc(-c2ccc(C)cc2)cc(-n2nncc2C)c1 (centres unmarked) [Compound 5, 4′-Methyl-5-(5-methyl-[1,2,3]triazol-1-yl)-biphenyl-3-carboxylic acid (2-methoxy-1-methyl-ethyl)-amide]"
269,2040,"COC[C@@H](C)NC(=O)c1cc(-c2ccc(C)cc2)cc(-n2nncc2C)c1 [Compound 6, 4′-Methyl-5-(5-methyl-[1,2,3]triazol-1-yl)-biphenyl-3-carboxylic acid ((R)-2-methoxy-1-methyl-ethyl)-amide]"
3.72,309,"Cc1ccc(-c2cc(C(=O)N[C@@H](C)CO)cc(-n3nncc3C(C)C)c2)cc1 [Compound 8, 5-(5-Isopropyl-[1,2,3]triazol-1-yl)-4′-methyl-biphenyl-3-carboxylic acid ((S)-2-hydroxy-1-methyl-ethyl)-amide]"
18.6,501,"COCC(C)NC(=O)c1cc(-c2ccc(C)cc2)cc(-n2nncc2C(C)C)c1 (centres unmarked) [Compound 9, 5-(5-Isopropyl-[1,2,3]triazol-1-yl)-4′-methyl-biphenyl-3-carboxylic acid (2-methoxy-1-methyl-ethyl)-amide]"
7.41,324,"COC[C@@H](C)NC(=O)c1cc(-c2ccc(C)cc2)cc(-n2nncc2C(C)C)c1 [Compound 10, 5-(5-Isopropyl-[1,2,3]triazol-1-yl)-4′-methyl-biphenyl-3-carboxylic acid ((R)-2-methoxy-1-methyl-ethyl)-amide]"
5.25,257,"Cc1ccc(-c2cc(C(=O)NC(C)CO)cc(-n3nncc3C(C)C)c2)cc1 (centres unmarked) [Compound 11, 5-(5-Isopropyl-[1,2,3]triazol-1-yl)-4′-methyl-biphenyl-3-carboxylic acid (2-hydroxy-1-methyl-ethyl)-amide]"
75.9,8130,"Cc1ccc(-c2cc(C(=O)N[C@@H](C)CO)cc(-n3nncc3C)c2)cc1 [Compound 13, 4′-Methyl-5-(5-methyl-[1,2,3]triazol-1-yl)-biphenyl-3-carboxylic acid ((S)-2-hydroxy-1-methyl-ethyl)-amide]"
12,1020,"COCC(C)NC(=O)c1cc(-c2ccc(C)cc2)cc(-n2ncnc2C(C)C)c1 (centres unmarked) [Compound 14, 5-(5-Isopropyl-[1,2,4]triazol-1-yl)-4′-methyl-biphenyl-3-carboxylic acid (2-methoxy-1-methyl-ethyl)-amide]"
10.2,813,"COC[C@@H](C)NC(=O)c1cc(-c2ccc(C)cc2)cc(-n2ncnc2C(C)C)c1 [Compound 15, 5-(5-Isopropyl-[1,2,4]triazol-1-yl)-4′-methyl-biphenyl-3-carboxylic acid ((R)-2-methoxy-1-methyl-ethyl)-amide]"
100,,"COC[C@@H](C)NC(=O)c1cc(-c2ccc(C)cc2)cc(-n2nc(C)nc2C(C)C)c1 [Compound 27, 5-(5-Isopropyl-3-methyl-[1,2,4]triazol-1-yl)-4′-methyl-biphenyl-3-carboxylic acid ((R)-2-methoxy-1-methyl-ethyl)-amide]"
